From US4806660A, “Aurone oxypropanolamines” (Pennwalt Corporation, priority 1988, dated 1989) come the findings set out here.

Where a name gives a salt, the structure may show the parent alone.

This assay deals with LTC4-induced contraction of guinea pig ileum. Description: Test for Inhibition of LTC4-Induced Guinea Pig Ilial Contractions. Conditions: Cavia porcellus, LTC4 6 nanomolar, isolated guinea pig ilial strips, four replicate tissues, read-out: Percent Inhibition of Contraction at the given Concentration of Test Compound; for inhibition at 1 µM: 1 μMolar; for inhibition at 5 µM: 5 μMolar; for inhibition at 10 µM: 10 μMolar; for inhibition at 50 µM: 50 μMolar. As to the method:
Test for Inhibition of LTC4 -Induced Guinea Pig Ilial Contractions The evaluation of potential anti-allergic compounds for antagonism of the in vitro effects of LTC4 is conducted according to the following procedure. Guinea pig ilial strips are obtained from recently killed animals and hung in isolated tissue baths comprising a balanced solution of salts such as Krebs' solution. After allowing for one hour equilibration of the tissue in the bath, the gram tension (G.T.) on one tissue is arbitrarily set at one. LTC4 (6 nanomolar concentration) is then added to the tissue bath. This induces a long, sustained contraction of the tissue that is measured on the strip chart recorder (the G.T. increases to about 2). After the LTC4 -induced contraction has plateaued and remains stable, increasing amounts of the test compound are added to the bath. If the compound is effective, a decrease in the G.T. (ΔG.T.) from the LTC4 -induced value is seen (e.g., from 2 to 1.5). The percent inhibition at each concentration is calculated according to the formula: [formula] Four replicate tissues are run.

`O=C1/C(=C/c2ccccc2)Oc2cc(OCC(O)CNC3CC3)ccc21` (stereo not drawn) [Example 3, 6-[3-(Cyclopropylamino)-2-hydroxypropoxy]aurone Hydrochloride]: the inhibition at 1 µM worked out at 25%, the inhibition at 5 µM was determined as 48%, the inhibition at 10 µM came to 65% and the inhibition at 50 µM came out at 144%.

For the compound `CCCNCC(O)COc1ccc2c(c1)O/C(=C\c1ccccc1)C2=O` (stereo not drawn) [Example 1, 6-[2-Hydroxy-3-(propylamino)propoxy]aurone Hydrochloride], the inhibition at 1 µM was found to be 16%, the inhibition at 5 µM was 44%, the inhibition at 10 µM came to 66% and the inhibition at 50 µM amounted to 135%.

Regarding `CC(C)NCC(O)COc1ccc2c(c1)O/C(=C\c1ccccc1)C2=O` (stereo not drawn) [Example 2, 6-[2-Hydroxy-3-(isopropylamino)propoxy]aurone Hydrochloride], the inhibition at 1 µM was found to be 23%, the inhibition at 5 µM is 48%, the inhibition at 10 µM stood at 62% and the inhibition at 50 µM amounted to 154%.
